Test results taken from ChEMBL document CHEMBL4715837, “Dimeric aryl-substituted imidazoles may inhibit ALT cancer by targeting the multimeric G-quadruplex in telomere” (Eur J Med Chem, 2020).
Activity calls are given as the source filed them. No cut-off for these calls is given here.

Columns and labels:
[1] = system: U2OS; assay: Cell cycle arrest in human U2OS cells assessed as accumulation at S phase at 0.6 uM measured after 24 hrs by propidium iodide staining based flow cytometry (reference value: 24%); assay type: functional
[2] = system: Quadruplex DNA; assay: Binding affinity at Tel21 G4 quadruplex DNA (unknown origin) assessed as change in melting temperature at 6 uM by circular dichroism spectrophotometric method; assay type: nucleic acid
[3] = system: Quadruplex DNA; assay: Binding affinity at Tel45 G4 quadruplex DNA (unknown origin) assessed as change in melting temperature at 6 uM by circular dichroism spectrophotometric method; assay type: nucleic-acid assay
[4] = target: Quadruplex DNA; assay: Binding affinity at Tel45 G4 quadruplex DNA (unknown origin) by fluorescence spectroscopic analysis; assay type: nucleic-acid assay
[5] = target: Quadruplex DNA; assay: Binding affinity at Tel21 G4 quadruplex DNA (unknown origin) by fluorescence spectroscopic analysis; assay type: nucleic-acid assay
[6] = Binding affinity to hairpin duplex DNA (unknown origin) by fluorescence spectroscopic analysis
[7] = system: Quadruplex DNA; assay: Binding affinity at Tel45 G4 quadruplex DNA (unknown origin) assessed as appearance of new long-lived unquenched species by time resolved fluorescence assay; assay type: nucleic-acid assay
[8] = system: Quadruplex DNA; assay: Binding affinity at Tel21 G4 quadruplex DNA (unknown origin) by time resolved fluorescence analysis; assay type: nucleic-acid assay
[9] = Binding affinity to hairpin duplex DNA (unknown origin) by time resolved fluorescence analysis
[10] = system: Quadruplex DNA; assay: Binding affinity to Tel45 G4 quadruplex DNA (unknown origin) assessed as compound-DNA complex formation at stoichiometry ratio of 1:1 by job-plot analysis; assay type: nucleic-acid assay
[11] = system: Quadruplex DNA; assay: Binding affinity to 2-Ap25 labelled Tel45 G4 quadruplex DNA (unknown origin) up to 10 uM by fluorescence titration assay; assay type: nucleic-acid assay; conditions: dose microM <=10
[12] = system: Quadruplex DNA; assay: Binding affinity to 2-Ap1 labelled Tel45 G4 quadruplex DNA (unknown origin) up to 10 uM by fluorescence titration assay; assay type: nucleic-acid assay; conditions: dose microM <=10
[13] = system: Quadruplex DNA; assay: Binding affinity to 2-Ap46 labelled Tel45 G4 quadruplex DNA (unknown origin) up to 10 uM by fluorescence titration assay; assay type: nucleic-acid assay; conditions: dose microM <=10
[14] = target: Quadruplex DNA; assay: Binding affinity at Tel45-6 mutant G4 quadruplex DNA (unknown origin) by fluorescence spectroscopic analysis; assay type: nucleic-acid assay
[15] = target: Quadruplex DNA; assay: Binding affinity at Tel45-9 mutant G4 quadruplex DNA (unknown origin) by fluorescence spectroscopic analysis; assay type: nucleic-acid assay
[16] = system: Quadruplex DNA; assay: Binding affinity at Tel45-6 mutant G4 quadruplex DNA (unknown origin) assessed as change in melting temperature at 6 uM by circular dichroism spectrophotometric method; assay type: nucleic-acid assay
[17] = system: Quadruplex DNA; assay: Binding affinity at Tel45-9 mutant G4 quadruplex DNA (unknown origin) assessed as change in melting temperature at 6 uM by circular dichroism spectrophotometric method; assay type: nucleic-acid assay
[18] = system: U2OS; assay: Cytotoxicity against human U2OS cells assessed as reduction in cell viability measured after 24 hrs by CCK8 assay
[19] = system: BJ; assay: Cytotoxicity against human BJ cells assessed as reduction in cell viability measured after 24 hrs by CCK8 assay; assay type: cell-based
[20] = system: U2OS; assay: Inhibition of colony formation in human U2OS cells supplemented with fresh medium containing compounds every 3 days for 7 days by crystal violet staining based assay; assay type: functional, cell-based; conditions: dose 0.12-0.5 µM, time 7.0 day
[21] = system: U2OS; assay: Antimigratory activity in human U2OS cells measured after 24 hrs by wound scrape assay; assay type: functional, cell-based; conditions: dose 1.5-5 µM
[22] = system: U2OS; assay: Cell cycle arrest in human U2OS cells assessed as increase in accumulation at S phase measured after 24 hrs by propidium iodide staining based flow cytometry; assay type: functional
[23] = system: U2OS; assay: Cell cycle arrest in human U2OS cells assessed as accumulation at Sub-G1 phase at 0.6 uM measured after 24 hrs by propidium iodide staining based flow cytometry (reference value: 0.5%); assay type: functional
[24] = system: U2OS; assay: Cell cycle arrest in human U2OS cells assessed as accumulation at G0/G1 phase at 0.6 uM measured after 24 hrs by propidium iodide staining based flow cytometry (reference value: 42%); assay type: functional
[25] = system: U2OS; assay: Cell cycle arrest in human U2OS cells assessed as accumulation at G2/M phase at 0.6 uM measured after 24 hrs by propidium iodide staining based flow cytometry (reference value: 33.5%); assay type: functional
[26] = system: U2OS; assay: Cell cycle arrest in human U2OS cells assessed as accumulation at Sub-G1 phase at 1.2 uM measured after 24 hrs by propidium iodide staining based flow cytometry (reference value: 0.5%); assay type: functional
[27] = system: U2OS; assay: Cell cycle arrest in human U2OS cells assessed as accumulation at G0/G1 phase at 1.2 uM measured after 24 hrs by propidium iodide staining based flow cytometry (reference value: 42%); assay type: functional
[28] = system: U2OS; assay: Cell cycle arrest in human U2OS cells assessed as accumulation at S phase at 1.2 uM measured after 24 hrs by propidium iodide staining based flow cytometry (reference value: 24%); assay type: functional
[29] = system: U2OS; assay: Cell cycle arrest in human U2OS cells assessed as accumulation at G2/M phase at 1.2 uM measured after 24 hrs by propidium iodide staining based flow cytometry (reference value: 33.5%); assay type: functional
[30] = system: U2OS; assay: Cell cycle arrest in human U2OS cells assessed as accumulation at Sub-G1 phase at 2.5 uM measured after 24 hrs by propidium iodide staining based flow cytometry (reference value: 0.5%); assay type: functional
[31] = system: U2OS; assay: Cell cycle arrest in human U2OS cells assessed as accumulation at G0/G1 phase at 2.5 uM measured after 24 hrs by propidium iodide staining based flow cytometry (reference value: 42%); assay type: functional
[32] = system: U2OS; assay: Cell cycle arrest in human U2OS cells assessed as accumulation at S phase at 2.5 uM measured after 24 hrs by propidium iodide staining based flow cytometry (reference value: 24%); assay type: functional
[33] = system: U2OS; assay: Cell cycle arrest in human U2OS cells assessed as accumulation at G2/M phase at 2.5 uM measured after 24 hrs by propidium iodide staining based flow cytometry (reference value: 33.5%); assay type: functional
[34] = system: U2OS; assay: Induction of apoptosis in human U2OS cells assessed as viable cells at 0.6 uM measured after 24 hrs by Annexin-V flour 633/propidium iodide staining based flow cytometry (reference value: 90%); assay type: functional; conditions: read-out: Activity
[35] = system: U2OS; assay: Induction of apoptosis in human U2OS cells assessed as early apoptotic cells at 0.6 uM measured after 24 hrs by Annexin-V flour 633/propidium iodide staining based flow cytometry (reference value: 9.55%); assay type: functional
[36] = system: U2OS; assay: Induction of apoptosis in human U2OS cells assessed as late apoptotic cells at 0.6 uM measured after 24 hrs by Annexin-V flour 633/propidium iodide staining based flow cytometry (reference value: 0.03%); assay type: functional
[37] = system: U2OS; assay: Induction of apoptosis in human U2OS cells assessed as necrotic cells at 0.6 uM measured after 24 hrs by Annexin-V flour 633/propidium iodide staining based flow cytometry (reference value: 0.022%); assay type: functional
[38] = system: U2OS; assay: Induction of apoptosis in human U2OS cells assessed as viable cells at 1.2 uM measured after 24 hrs by Annexin-V flour 633/propidium iodide staining based flow cytometry (reference value: 90%); assay type: functional; conditions: read-out: Activity
[39] = system: U2OS; assay: Induction of apoptosis in human U2OS cells assessed as early apoptotic cells at 1.2 uM measured after 24 hrs by Annexin-V flour 633/propidium iodide staining based flow cytometry (reference value: 9.55%); assay type: functional
[40] = system: U2OS; assay: Induction of apoptosis in human U2OS cells assessed as late apoptotic cells at 1.2 uM measured after 24 hrs by Annexin-V flour 633/propidium iodide staining based flow cytometry (reference value: 0.03%); assay type: functional
[41] = system: U2OS; assay: Induction of apoptosis in human U2OS cells assessed as necrotic cells at 1.2 uM measured after 24 hrs by Annexin-V flour 633/propidium iodide staining based flow cytometry (reference value: 0.022%); assay type: functional
[42] = system: U2OS; assay: Induction of apoptosis in human U2OS cells assessed as viable cells at 2.5 uM measured after 24 hrs by Annexin-V flour 633/propidium iodide staining based flow cytometry (reference value: 90%); assay type: functional; conditions: read-out: Activity
[43] = system: U2OS; assay: Induction of apoptosis in human U2OS cells assessed as early apoptotic cells at 2.5 uM measured after 24 hrs by Annexin-V flour 633/propidium iodide staining based flow cytometry (reference value: 9.55%); assay type: functional
[44] = system: U2OS; assay: Induction of apoptosis in human U2OS cells assessed as late apoptotic cells at 2.5 uM measured after 24 hrs by Annexin-V flour 633/propidium iodide staining based flow cytometry (reference value: 0.03%); assay type: functional
[45] = system: U2OS; assay: Induction of apoptosis in human U2OS cells assessed as necrotic cells at 2.5 uM measured after 24 hrs by Annexin-V flour 633/propidium iodide staining based flow cytometry (reference value: 0.022%); assay type: functional

CN1CCN(c2ccc(-c3nc(-c4ccc(-c5nc(-c6ccc(F)cc6)c(-c6ccc(N7CCN(C)CC7)cc6)[nH]5)cc4)[nH]c3-c3ccc(F)cc3)cc2)CC1
Activity [1]: 25% | deltaTm [2]: 1.7 °C | ΔTm [3]: 12.7 °C | Kd [4]: 4.6 µM | Kd [5]: 18.4 µM | Kd [6]: 51.7 µM | Activity [7]: Active | Activity [8]: Not Active | Activity [9]: Not Active | Activity [10]: Active | Activity [11]: Active | Activity [12]: inactive | Activity [13]: inactive | Kd [14]: 8.6 µM | Kd [15]: 10.7 µM | deltaTm [16]: 2.5 °C | deltaTm [17]: 4.3 °C | IC50 [18]: 2.1 µM | IC50 [19]: 29.3 µM | inhibition [20]: Dose-dependent effect | Activity [21]: Dose-dependent effect | Activity [22]: Dose-dependent effect | Activity [23]: 0.3% | Activity [24]: 41.4% | Activity [25]: 33.4% | Activity [26]: 0.4% | Activity [27]: 39.3% | Activity [28]: 25.9% | Activity [29]: 34.4% | Activity [30]: 3.4% | Activity [31]: 36.5% | Activity [32]: 32.2% | Activity [33]: 27.9% | viability at 0.6 µM [34]: 84.3% | Activity [35]: 12.5% | Activity [36]: 3.05% | Activity [37]: 0.14% | viability at 1.2 µM [38]: 76.8% | Activity [39]: 17.9% | Activity [40]: 4.78% | Activity [41]: 0.53% | viability at 2.5 µM [42]: 73.7% | Activity [43]: 20% | Activity [44]: 4.92% | Activity [45]: 1.34%

CN1CCN(c2ccc(-c3nc(-c4ccc(-c5nc(-c6ccc(N7CCN(C)CC7)cc6)c(-c6ccc(N7CCN(C)CC7)cc6)[nH]5)cc4)[nH]c3-c3ccc(N4CCN(C)CC4)cc3)cc2)CC1
deltaTm [2]: 8.9 °C | ΔTm [3]: 6.9 °C

CN(C)c1ccc(Nc2c3ccc(NC(=O)CCN4CCCC4)cc3nc3cc(NC(=O)CCN4CCCC4)ccc23)cc1
IC50 [18]: > 40 µM

CN1CCN(c2ccc(-c3nc(-c4ccc(-c5nc(-c6ccc(F)cc6)c(-c6ccc(F)cc6)[nH]5)cc4)[nH]c3-c3ccc(N4CCN(C)CC4)cc3)cc2)CC1
deltaTm [2]: 6.1 °C | ΔTm [3]: 10.9 °C

CN1CCN(c2ccc(-c3nc(-c4ccc(-c5nc(-c6ccc(F)cc6)c(-c6ccc(N7CCN(C)CC7)cc6)[nH]5)cc4)[nH]c3-c3ccc(N4CCN(C)CC4)cc3)cc2)CC1
deltaTm [2]: 6.5 °C | ΔTm [3]: 15.7 °C
